From patent US7960543B2, “Nucleoside or nucleotide derivative and use thereof” (RIKEN, priority 2004, dated 2011)
Several values for one entry are separate records, joined by “and”; a condition that tells them apart may be missing. Equal values may be shown once. Read-outs that look alike come from different tables or passages of the source.

Legend:
[1] = for Quantum yield: pH 7.0 aqueous solution, standard fluorescein in 0.1 N NaOH, φs=0.90; for Emission maxima: excited at the wavelength printed in the cell (493, 553 or 320 nm), pH 7.0, 25° C.
Experimental: A 3×3 mm cell was used for measurement, and the following settings were used to measure each spectrum: response 1.0 s, sensitivity low, and slit width fixed at 3 nm for both excitation and fluorescence sides.
The quantum yield (φ) was calculated according to the following equation and fluorescein (1.0 μM in 0.1 N NaOH, φs=0.90) was used as a standard. φ=(F·As·η^2·φs)/(A·Fs·η0^2)
F: Area of each fluorescence spectrum
A: Absorbance at the excitation wavelength
η: Refractive index (water: 1.33)

[2] = target: T1, T7 RNA polymerase (Escherichia phage T7, UniProt P00573); details: compared to transcription using the natural template and substrates only; 1 mM modified yTP, 37° C., 3 hours
Experimental: More specifically, double-stranded template DNA (10 μM) was annealed in 10 mM Tris-HCl buffer (pH 7.6) containing 10 mM NaCl under the following conditions: 95° C. for 3 minutes→50° C. for 3 minutes→slow cooling to 4° C. T7 transcription reaction was accomplished in a reaction solution (20 μl) containing 40 mM Tris-HCl buffer (pH 8.0), 24 mM MgCl2, 2 mM spermidine, 5 mM DTT, 0.01% Triton X-100, 2 μCi [y-^32P]GTP, 1 mM NTPs, 1 mM modified yTP, 2 μM template DNA, and 50 units of T7 RNA polymerase (Takara).
The template DNA used was a duplex formed between T7 promoter-containing 35-mer template strand and T7 promoter non-template strand 21-mer, which has been modified to have s or v introduced at a single position within the template.
where N(5)=v (the present invention), s (the present invention) or A (control)
where N′(13)=NH2-y, FAM-y or TAMRA-y
The modified substrate was added in the same amount as the natural substrates and reacted at 37° C. for 3 hours, followed by addition of an electrophoresis dye solution (20 μl) containing 10 M urea to stop the reaction. The reaction solution was heated at 75° C. for 3 minutes and then electrophoresed on a 20% polyacrylamide-7 M urea gel. The transcripts were analyzed with a bio-imaging analyzer.

[3] = target: T1, T7 RNA polymerase; details: RNA 17-mer transcript, RNase T2 digest, [α-32P]ATP
Experimental: The same T7 RNA polymerase-mediated transcription reaction as shown in Example 11 was performed in a reaction solution containing 40 mM Tris-HCl buffer (pH 8.0), 24 mM MgCl2, 2 mM spermidine, 5 mM DTT, 0.01% Triton X-100, 2 μCi [α-^32P]ATP, 1 mM NTPs, 1 mM modified-yTP, 2 μM template DNA, and 50 units of T7 RNA polymerase (Takara). After electrophoresis on a 15% polyacrylamide-7 M urea gel, the transcript was eluted from the gel and collected by ethanol precipitation in the presence of tRNA (0.25 OD).
To this tRNA-containing solution (8.5 μl), RNase T2 (1.5 μl, 1 unit/μl) was added and reacted overnight at 37° C. 0.3 μl of this solution was spotted on a TLC plate (Merck, 10 cm×10 cm) and developed two-dimensionally. As a developing solution, isobutyric acid:concentrated aqueous ammonia:water=66:1:33 (v/v/v) was used for the first dimension and 2-propanol:hydrochloric acid:water=65:10:25 (v/v/v) was used for the second dimension. The developed spots were detected and analyzed with a bio-imaging analyzer.

[4] = 1.0 μM in 10 mM sodium phosphate buffer (pH 7.0), 25° C.

T1 sequence (P00573 whole entry): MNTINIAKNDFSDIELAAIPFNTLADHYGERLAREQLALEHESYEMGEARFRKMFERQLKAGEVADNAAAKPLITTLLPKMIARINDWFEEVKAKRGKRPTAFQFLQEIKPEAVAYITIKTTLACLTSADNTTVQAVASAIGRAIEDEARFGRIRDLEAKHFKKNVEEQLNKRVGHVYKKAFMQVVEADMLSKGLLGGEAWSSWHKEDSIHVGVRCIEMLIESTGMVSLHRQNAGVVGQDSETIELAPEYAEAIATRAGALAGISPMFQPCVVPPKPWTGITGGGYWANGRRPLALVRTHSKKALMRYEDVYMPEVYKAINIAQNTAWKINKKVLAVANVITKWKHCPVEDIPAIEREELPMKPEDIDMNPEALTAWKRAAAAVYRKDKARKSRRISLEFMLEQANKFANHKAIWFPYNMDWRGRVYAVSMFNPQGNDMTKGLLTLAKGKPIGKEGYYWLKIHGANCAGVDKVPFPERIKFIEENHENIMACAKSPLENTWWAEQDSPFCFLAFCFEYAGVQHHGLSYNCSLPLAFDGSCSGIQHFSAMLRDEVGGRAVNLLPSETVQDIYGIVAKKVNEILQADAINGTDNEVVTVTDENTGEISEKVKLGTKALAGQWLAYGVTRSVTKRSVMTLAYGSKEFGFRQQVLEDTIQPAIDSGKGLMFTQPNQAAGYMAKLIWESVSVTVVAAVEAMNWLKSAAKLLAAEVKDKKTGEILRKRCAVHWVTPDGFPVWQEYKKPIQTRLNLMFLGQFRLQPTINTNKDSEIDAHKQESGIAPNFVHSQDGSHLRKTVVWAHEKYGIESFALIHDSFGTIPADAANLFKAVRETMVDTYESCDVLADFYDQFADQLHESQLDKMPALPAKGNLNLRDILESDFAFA

| Absorption maxima [1, 4] | Emission maxima [1] | SMILES | ε at absorption maximum [1, 4] | Quantum yield [1] | yield of RNA incorporating the modified substrate [2] | Absorption maxima ([1]; pH 7) | ε at absorption maximum ([1]; pH 7) | incorporation opposite v in the template [3] |
| --- | --- | --- | --- | --- | --- | --- | --- | --- |
| 319 nm and 252 nm | 387 nm and 541 nm | CN(C)c1cccc2c(S(=O)(=O)NCCCCCC(=O)NCCCCCC(=O)NCC#Cc3c[nH]c(=O)c([C@@H]4O[C@H](COP(=O)(O)OP(=O)(O)OP(=O)(O)O)[C@@H](O)[C@H]4O)c3)cccc12 [Dansyl-x-yTP, 3-(β-D-ribofuranosyl)-5-[3-[6-[6-[(5-dimethylaminonaphthalene-1-sulfonyl)amino]hexanamido]hexanamido]-1-propynyl]-2-oxo(1H)pyridine 5′-triphosphate] |  | 0.014 |  |  |  |  |
|  |  | CN(C)c1ccc2c(-c3cc(C(=O)NCCCCCC(=O)NCC#Cc4c[nH]c(=O)c([C@@H]5O[C@H](COP(=O)(O)OP(=O)(O)OP(=O)(O)O)[C@@H](O)[C@H]5O)c4)ccc3C(=O)[O-])c3ccc(N(C)C)cc3[o+]c2c1 [TAMRA-yTP, 3-(β-D-ribofuranosyl)-5-[3-[6-(tetramethylrhodamine-5-carboxamido)hexanamido]-1-propynyl]-2-oxo(1H)pyridine 5′-triphosphate] |  | 0.50 | 61% | 553 nm and 553 (ε 85,000) nm | 553 (ε 85,000) |  |
| 493 nm | 521 (excited at 493 nm) | O=C(NCC#Cc1c[nH]c(=O)c([C@@H]2O[C@H](COP(=O)(O)OP(=O)(O)OP(=O)(O)O)[C@@H](O)[C@H]2O)c1)c1ccc2c(c1)C(=O)OC21c2ccc(O)cc2Oc2cc(O)ccc21 [short FAM-yTP, 3-(β-D-ribofuranosyl)-5-[3-(fluorescein-5-carboxamido)-1-propynyl]-2-oxo(1H)pyridine 5′-triphosphate] | 70,000 | 0.67 |  |  |  |  |
|  |  | NCCCCCC(=O)NCC#Cc1c[nH]c(=O)c([C@@H]2O[C@H](COP(=O)(O)OP(=O)(O)OP(=O)(O)O)[C@@H](O)[C@H]2O)c1 [NH2-yTP, 3-(β-D-ribofuranosyl)-5-[3-(6-aminohexanamido)-1-propynyl]-2-oxo(1H)pyridine 5′-triphosphate] |  |  | same yield |  |  | specific incorporation |

| SMILES | Absorption maxima [1, 4] | Emission maxima [1] | ε at absorption maximum [1, 4] | Quantum yield [1] | yield of RNA incorporating the modified substrate [2] | Absorption maxima ([1]; pH 7) | ε at absorption maximum ([1]; pH 7) | incorporation opposite v in the template [3] |
| --- | --- | --- | --- | --- | --- | --- | --- | --- |
| O=C(CCCCCNC(=O)c1ccc2c(c1)C(=O)OC21c2ccc(O)cc2Oc2cc(O)ccc21)NCC#Cc1c[nH]c(=O)c([C@@H]2O[C@H](COP(=O)(O)OP(=O)(O)OP(=O)(O)O)[C@@H](O)[C@H]2O)c1 [FAM-yTP, 3-(β-D-ribofuranosyl)-5-[3-[6-(fluorescein-5-carboxamido)hexanamido]-1-propynyl]-2-oxo(1H)pyridine 5′-triphosphate] | 493 nm |  | 62,000 | 0.55 | 76% |  |  |  |
